Measurements as given in patent US9546367B2, “siRNA compositions and methods for inhibiting gene expression in tumor initiating cells of breast cancer” (priority 2011, dated 2017).

Key:
BT549 = experiment: in vitro MSFE with nanoliposome/silicon particle packaged siRNA; type: cell-based, human; details: for secondary MSFE: BT549, siRNA, Day 8, p<0.05; for primary and secondary MSFE: BT549 incubated with MSV/siRNA
Method: (§1) “Claudin-low”-like human breast cancer cell lines (SUM159 and BT549) were plated in 24-well ultralow attachment plates with mammary epithelial growth medium (MEGM) (5,000 cells/well). Both cell lines were then treated with 1 μg/well/6 wells of silicon particles loaded with DOPC nanoliposomes/siRNA. The primary MSs were allowed to grow for 3 days. MFs were counted on Day 3 with a GelCount colony counter (Oxford Optronix, Oxford, UK). Mammosphere-Forming Efficiency (MSFE) was calculated by dividing the number of MSs by the number of seeded cells. In addition, established MSs were serially passaged by dissociation, and single cells were re-plated on fresh 24-well, ultra-low-attachment plates to form secondary mammospheres, which were counted after 3 days. One-way ANOVA and Tukey tests were performed. A p-value of less than 0.05 was considered significant.
(§2) To develop a more clinically relevant model, two of the identified candidates (MLF2 and RPL39L) were compared to Stat3 (positive control), and their siRNA sequences identified within the shRNA vector. These siRNAs were then packaged in nanoliposomes and tested for MSFE using the same protocol as above, except for the addition of packaged siRNA instead of lentiviral shRNA. (N.B. wherein shRNA requires a promoter and needs to be transcribed in order to function, siRNA functions by itself once incorporated into recipient cells).
(§3) To develop siRNA nanotherapeutics targeting TIC, studies have been conducted to confirm the essential roles of the candidate TIC genes. Exemplary siRNA oligonucleotides specific for STAT3, MFL2, and RPL39L were formulated into nanoliposomes, which were then loaded into porous silicon MSV particles. For in vitro assay, BT549 and SUM159 cells were incubated with MSV/siRNA, and primary and secondary MSFE was measured. […] For in vivo assessment, SCID/Beige mice were inoculated with SUM159 tumor, and treated with MDS/siRNA delivered by tail vein injection. Cells were then isolated from tumor mice 3 weeks later, and MSFE was measured. […] These studies indicate that 1) MDS/siRNA could successfully be delivered to tumor tissues effectively in vivo, 2) uptake of MDS/siRNA by TIC was efficient, and 3) MFL2 and RPL39L were essential genes for TIC.
(§4) The siRNA sequences of two candidate genes RPL39 and MLF2 were packaged in nanoliposomes and the effects on MSFE determined in vitro, as described above, using packaged siRNA instead of lentiviral shRNA.

SUM159 = experiment: as above; type: cell-based, human; details: for secondary MSFE: SUM159, siRNA, Day 8, p<0.05; for primary and secondary MSFE: SUM159 incubated with MSV/siRNA
Method: as §1, §2, §3, §4

MDAMB231 lung metastasis = experiment: in vivo lung metastasis of luciferase-tagged MDAMB231, IVIS imaging; parameters: species or system SCID-beige mice; details: siRNA in cationic liposomes twice weekly; for lung metastasis (animals with metastasis / animals), IVIS imaging: week six; for luminescence (luciferase analysis): p<0.05
Method: 3 million cells MDAMB231 cancer cells, stably transfected with luciferase, were injected in the mammary fat pad of SCID-beige mice and were randomized into 3 groups: (1) vehicle+scrambled siRNA, (2) vehicle+MLF2 siRNA, and (3) vehicle+RPL39 siRNA, and treated with siRNA packaged liposomes twice weekly for 6 weeks. The mice were injected with D-luciferin every week for 6 weeks to determine lung metastases using IVIS imaging (Perkin Elmer). The primary tumors were removed by week 5 to continue this study without increasing the primary tumor burden to 10% of body weight.
To assess the effects of RPL39 and MLF2 siRNA on lung metastasis, SCID-Beige mice were injected with luciferase-tagged MDAMB231 cells and treated with siRNA against RPL39 or MLF2 packaged in cationic liposomes, twice weekly simultaneously, and then sacrificed at week six.

MLF2 siRNA: siRNA against myeloid leukemia factor 2; sense SEQ ID NO: 3 CCCTGATGGATCCCTTTGCTAT, antisense SEQ ID NO: 19 ATAGCAAAGGGATCCATCAGGA (packaged in nanoliposomes, chemistry not given here, further chemistry not given here)
secondary MSFE (BT549): significantly reduced
primary and secondary MSFE (BT549): significant reduction
secondary MSFE (SUM159): significantly reduced
primary and secondary MSFE (SUM159): significant reduction
lung metastasis (animals with metastasis / animals), IVIS imaging (MDAMB231 lung metastasis): 8/12
luminescence (luciferase analysis) (MDAMB231 lung metastasis): significant reduction

RPL39 siRNA: siRNA against ribosomal protein L39-like; sense SEQ ID NO: 15 ACGATTCCTGGCCAAGAAACAA, antisense SEQ ID NO: 31 TTGTTTCTTGGCCAGGAATCGC (listed as DNA, chemistry not fully specified)
secondary MSFE (BT549): significantly reduced
primary and secondary MSFE (BT549): significant reduction
secondary MSFE (SUM159): significantly reduced
primary and secondary MSFE (SUM159): significant reduction
lung metastasis (animals with metastasis / animals), IVIS imaging (MDAMB231 lung metastasis): 5/11
luminescence (luciferase analysis) (MDAMB231 lung metastasis): significant reduction
